In patent US20030109522A1, “Ophthalmologic treatment methods using selective iNOS inhibitors” (priority 2001, published 2003):
Counter-ions that a name gives are not always drawn. Like-named read-outs stand apart in the source and are kept apart here.

Columns and labels:
[1] = biological target: T1, Human inducible NOS (hiNOS) (Homo sapiens, UniProt P35228); experiment: Citrulline assay for nitric oxide synthase, hiNOS; type: biochemical; conditions: averages across all experiments and all lots; 30 μM L-arginine
T1 construct: made in house; host or cells: Sf9 insect cells, baculovirus vector

[2] = biological target: T2, human endothelial constitutive NOS (hecNOS) (Homo sapiens, UniProt P29474); experiment: Citrulline assay for nitric oxide synthase, hecNOS; type: biochemical; conditions: averages across all experiments and all lots; 30 μM L-arginine
T2 construct: made in house; host or cells: Sf9 insect cells, baculovirus vector

[3] = biological target: T3, human neuronal constitutive NOS (hncNOS) (Homo sapiens, UniProt P29475); experiment: Citrulline assay for nitric oxide synthase, hncNOS; type: biochemical; conditions: averages across all experiments and all lots; 30 μM L-arginine
T3 construct: made in house; host or cells: Sf9 insect cells, baculovirus vector

[4] = tested on: LPS-induced increase in plasma nitrite/nitrate levels; experiment: In vivo assay, endotoxin-treated rats; conditions: administered orally, plasma nitrite/nitrate 5 hours post-treatment
Method: Plasma nitrite/nitrate levels can be determined 5 hours post-treatment.

[5] = biological target: T4, hiNOS (Homo sapiens, UniProt P35228); experiment: Assay for time dependent inhibition, hiNOS; type: biochemical
T4 construct: made in house; host or cells: Sf9 insect cells, baculovirus vector
Method: (§1) Assay for Time Dependent Inhibition
(§2) Aliquots (10 μL) are removed at 0, 10,21 and 60 minutes and immediately added to a citrulline assay enzyme reaction mixture containing L-[2,3-^3H]-arginine and a final L-arginine concentration of 30 μM in a final volume of 100 μL. The reaction is allowed to proceed for 15 minutes at 37° C. and terminated by addition of stop buffer and chromatography with Dowex 50W X-8 cation exchange ion exchange resin as described for the citrulline NOS assay. The % inhibition of NOS activity by an inhibitor was taken as the percent inhibition in activity compared to control enzyme preincubated for the same time in the absence of inhibitor.

[6] = biological target: T5, hecNOS (Homo sapiens, UniProt P29474); experiment: Assay for time dependent inhibition, hecNOS; type: biochemical
T5 construct: made in house; host or cells: Sf9 insect cells, baculovirus vector
Method: as §1, §2

[7] = biological target: T6, hncNOS (Homo sapiens, UniProt P29475); experiment: Assay for time dependent inhibition, hncNOS; type: biochemical
T6 construct: made in house; host or cells: Sf9 insect cells, baculovirus vector
Method: as §1, §2

[8] = tested on: nitrite production in human cartilage explants; experiment: Human cartilage explant assay (IL-1 induced nitrite production); type: cell-based; conditions: inhibition of nitrite production, IL-1 stimulated explants
Method: Human Cartilage Explant Assay
Bone pieces are rinsed twice with Dulbecco's Phosphate Buffered Saline (GibcoBRL) and once with Dulbecco's Modified Eagles Medium (GibcoBRL) and placed into a petri dish with phenol red free Minimum Essential Medium (MEM) (GibcoBRL). Cartilage was cut into small explants of approximately 15-45 mg in weight and one or two explants per well are placed into either 96 or 48 well culture plates with 200-500 μL of culture media per well. The culture media was either a custom modification of Minimum Essential Medium(Eagle) with Earle's salts (GibcoBRL) prepared without L-Arginine, without L-Glutamine and without phenol red or a custom modification of serumless Neuman and Tytell (GibcoBRL) medium prepared without L-arginine, without insulin, without ascorbic acid, without L-glutamine and without phenol red. Both are supplemented before use with 100 μM L-Arginine (Sigma), 2 mM L-glutamine, 1×HL-1 supplement (BioWhittaker), […] ascorbic acid (Sigma) and 150 pg/ml recombinant human IL-1[…] (RD Systems) to induce nitric oxide synthase. Compounds are then added in 10 μL aliquots and the explants incubated at 37° C. with 5% CO2 for 18-24 hours. The day old supernatant is then discarded and replaced with fresh culture media containing recombinant human IL-1 ? and compound and incubated for another 20-24 hours. […] All samples are done in quadruplicate. Unstimulated controls are cultured in media in the absence of recombinant human IL-1[…]. IC50 values (Table I) are determined from plotting the percent inhibition of nitrite production at six different concentrations of inhibitor.

[9] = tested on: retinal ganglion cells; conditions: rats with chronic moderately elevated IOP; cited from earlier work
[10] = Rattus norvegicus, po, read-out: ED50

T2 sequence (P29474 2-1203): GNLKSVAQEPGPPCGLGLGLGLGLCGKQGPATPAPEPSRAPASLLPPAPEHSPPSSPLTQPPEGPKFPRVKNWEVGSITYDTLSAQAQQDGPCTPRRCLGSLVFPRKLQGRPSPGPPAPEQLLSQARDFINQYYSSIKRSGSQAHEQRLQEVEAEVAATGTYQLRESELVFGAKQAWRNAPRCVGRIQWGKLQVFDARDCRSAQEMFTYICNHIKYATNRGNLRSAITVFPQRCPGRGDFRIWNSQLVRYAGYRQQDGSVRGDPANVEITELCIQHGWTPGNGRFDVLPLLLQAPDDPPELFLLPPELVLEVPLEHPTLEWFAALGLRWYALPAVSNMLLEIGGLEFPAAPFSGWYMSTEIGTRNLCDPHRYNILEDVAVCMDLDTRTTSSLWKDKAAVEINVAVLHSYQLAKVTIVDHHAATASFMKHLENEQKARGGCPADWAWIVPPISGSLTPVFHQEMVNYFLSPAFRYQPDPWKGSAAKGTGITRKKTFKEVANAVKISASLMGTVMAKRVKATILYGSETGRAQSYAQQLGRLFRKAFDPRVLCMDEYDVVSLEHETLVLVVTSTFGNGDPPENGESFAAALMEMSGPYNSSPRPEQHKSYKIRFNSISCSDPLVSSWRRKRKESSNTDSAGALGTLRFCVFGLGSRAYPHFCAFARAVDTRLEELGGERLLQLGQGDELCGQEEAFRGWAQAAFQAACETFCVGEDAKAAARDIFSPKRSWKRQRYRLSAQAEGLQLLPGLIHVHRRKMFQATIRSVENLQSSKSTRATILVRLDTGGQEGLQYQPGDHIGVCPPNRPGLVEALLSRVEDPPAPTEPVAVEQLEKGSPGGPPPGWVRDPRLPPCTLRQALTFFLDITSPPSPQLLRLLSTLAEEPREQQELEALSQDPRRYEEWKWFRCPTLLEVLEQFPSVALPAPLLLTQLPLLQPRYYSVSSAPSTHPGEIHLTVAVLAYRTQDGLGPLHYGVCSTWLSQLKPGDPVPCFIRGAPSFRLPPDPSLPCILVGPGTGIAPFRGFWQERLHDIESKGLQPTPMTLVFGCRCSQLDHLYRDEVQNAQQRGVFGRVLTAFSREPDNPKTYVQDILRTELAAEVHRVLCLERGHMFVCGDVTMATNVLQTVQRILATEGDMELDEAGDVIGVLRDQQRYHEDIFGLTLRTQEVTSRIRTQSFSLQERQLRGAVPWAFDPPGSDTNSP
T1 sequence (P35228 whole entry): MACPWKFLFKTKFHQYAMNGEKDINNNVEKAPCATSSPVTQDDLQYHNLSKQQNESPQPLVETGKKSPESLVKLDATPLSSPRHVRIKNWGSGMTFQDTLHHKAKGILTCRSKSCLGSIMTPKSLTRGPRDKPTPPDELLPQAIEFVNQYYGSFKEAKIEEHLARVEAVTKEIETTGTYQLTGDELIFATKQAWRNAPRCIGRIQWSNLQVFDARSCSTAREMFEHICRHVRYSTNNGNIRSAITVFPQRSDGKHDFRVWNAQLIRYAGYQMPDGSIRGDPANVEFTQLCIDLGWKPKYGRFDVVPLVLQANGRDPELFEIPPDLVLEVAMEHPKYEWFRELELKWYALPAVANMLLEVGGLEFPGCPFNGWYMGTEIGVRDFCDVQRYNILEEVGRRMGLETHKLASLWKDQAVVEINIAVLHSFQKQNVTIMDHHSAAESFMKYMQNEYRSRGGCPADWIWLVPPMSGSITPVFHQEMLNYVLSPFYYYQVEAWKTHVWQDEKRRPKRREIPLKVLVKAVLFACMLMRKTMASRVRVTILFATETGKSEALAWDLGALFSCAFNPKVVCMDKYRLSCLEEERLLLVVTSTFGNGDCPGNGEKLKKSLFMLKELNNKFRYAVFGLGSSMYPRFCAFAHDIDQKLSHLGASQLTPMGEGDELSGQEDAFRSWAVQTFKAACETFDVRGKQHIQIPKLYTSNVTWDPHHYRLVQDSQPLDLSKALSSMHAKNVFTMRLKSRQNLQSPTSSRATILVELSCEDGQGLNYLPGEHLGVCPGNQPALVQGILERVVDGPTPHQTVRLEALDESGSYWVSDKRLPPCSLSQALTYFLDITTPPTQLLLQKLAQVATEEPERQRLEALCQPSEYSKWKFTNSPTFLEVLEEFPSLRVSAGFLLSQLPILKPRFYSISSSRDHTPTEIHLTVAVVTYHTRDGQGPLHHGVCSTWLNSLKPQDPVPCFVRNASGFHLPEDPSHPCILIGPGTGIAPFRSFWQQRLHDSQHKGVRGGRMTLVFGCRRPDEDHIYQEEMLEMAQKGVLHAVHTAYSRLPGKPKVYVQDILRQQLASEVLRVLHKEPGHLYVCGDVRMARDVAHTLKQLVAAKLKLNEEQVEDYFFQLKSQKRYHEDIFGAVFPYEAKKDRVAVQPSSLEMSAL
T3 sequence (P29475 whole entry): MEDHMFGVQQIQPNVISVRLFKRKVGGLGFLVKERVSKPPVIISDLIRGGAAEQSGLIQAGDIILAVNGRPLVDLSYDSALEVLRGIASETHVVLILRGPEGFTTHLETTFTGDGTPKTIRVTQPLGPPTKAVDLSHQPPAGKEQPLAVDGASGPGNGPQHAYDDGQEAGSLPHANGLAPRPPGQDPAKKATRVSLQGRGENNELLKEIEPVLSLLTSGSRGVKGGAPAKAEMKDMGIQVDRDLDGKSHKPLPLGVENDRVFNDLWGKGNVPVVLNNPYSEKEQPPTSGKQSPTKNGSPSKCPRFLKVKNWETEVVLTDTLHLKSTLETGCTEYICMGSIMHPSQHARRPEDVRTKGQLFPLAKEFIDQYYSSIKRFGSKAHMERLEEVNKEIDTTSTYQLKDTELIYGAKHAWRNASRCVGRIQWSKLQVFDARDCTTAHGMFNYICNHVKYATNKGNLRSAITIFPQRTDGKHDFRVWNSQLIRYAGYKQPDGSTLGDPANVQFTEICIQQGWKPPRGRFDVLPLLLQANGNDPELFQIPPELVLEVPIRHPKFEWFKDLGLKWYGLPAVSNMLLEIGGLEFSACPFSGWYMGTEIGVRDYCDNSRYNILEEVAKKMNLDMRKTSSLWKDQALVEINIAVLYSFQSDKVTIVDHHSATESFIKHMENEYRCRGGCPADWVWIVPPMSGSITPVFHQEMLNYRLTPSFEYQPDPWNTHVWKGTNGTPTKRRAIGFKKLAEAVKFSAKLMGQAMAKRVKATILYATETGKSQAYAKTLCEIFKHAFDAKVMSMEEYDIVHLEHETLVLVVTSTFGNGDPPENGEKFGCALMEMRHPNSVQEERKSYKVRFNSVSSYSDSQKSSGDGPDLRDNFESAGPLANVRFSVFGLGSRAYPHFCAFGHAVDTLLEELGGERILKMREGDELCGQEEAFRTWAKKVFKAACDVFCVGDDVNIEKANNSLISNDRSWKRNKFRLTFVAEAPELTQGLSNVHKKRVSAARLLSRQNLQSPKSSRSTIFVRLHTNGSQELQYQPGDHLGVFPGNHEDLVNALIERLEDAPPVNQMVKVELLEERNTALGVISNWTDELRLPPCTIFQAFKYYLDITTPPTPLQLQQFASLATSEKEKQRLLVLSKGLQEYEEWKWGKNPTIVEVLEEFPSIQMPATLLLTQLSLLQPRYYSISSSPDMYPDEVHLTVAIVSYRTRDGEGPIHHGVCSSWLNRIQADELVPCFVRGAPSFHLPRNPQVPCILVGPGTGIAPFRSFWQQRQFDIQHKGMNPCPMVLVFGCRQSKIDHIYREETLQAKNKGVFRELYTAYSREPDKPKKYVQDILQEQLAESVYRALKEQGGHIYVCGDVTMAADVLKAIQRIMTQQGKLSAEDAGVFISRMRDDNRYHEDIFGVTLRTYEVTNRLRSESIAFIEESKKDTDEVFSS

| IC50 [1] | IC50 [2] | IC50 [3] | Compound | ED50 [4, 10] | IC50 ([8]; Homo sapiens) | also measured |
| --- | --- | --- | --- | --- | --- | --- |
| < 10 µM | > 25 µM | < 10 µM | N=C1CCCC[C@H](C/C=C/C[C@H](N)C(=O)O)N1 [Example BB, (2S,4E)-2-amino-6-[(2R)-hexahydro-7-imino-1H-azepin-2-yl]-4-hexenoic Acid] | – | – | – |
| – | – | – | N=C1CCCC[C@H](CCCC[C@H](N)C(=O)O)N1 [Example Z, ([…]S,2S)-[…]-aminohexahydro-7-imino-1H-azepine-2-hexanoic Acid, Trihydrate Hydrochloride] | < 5 mg/kg | – | inhibition at 2.2 µM ([5]; 21 min preincubation): 86%; inhibition at 2.2 µM ([5]; 60 min preincubation): 85%; inhibition at 15 µM ([6]; 21 min preincubation): 18%; inhibition at 15 µM ([6]; 60 min preincubation): 16%; inhibition at 3 µM ([7]; 3 μM, 21 min preincubation): 0% |
| – | – | – | N=C1CCCC[C@H](CCCC[C@@H](N)C(=O)O)N1 [Example Y, ([…]R,2S)-[…]-aminohexahydro-7-imino-1H-azepine-2-hexanoic Acid, Trihydrate Hydrochloride] | – | – | IC50 [8]: < 10 µM; inhibition at 2.8 µM ([5]; 21 min preincubation): 75%; inhibition at 2.8 µM ([5]; 60 min preincubation): 76%; inhibition at 33 µM ([6]; 21 min preincubation): 11%; inhibition at 33 µM ([6]; 60 min preincubation): 11%; inhibition at 5 µM ([7]; 5 μM, 21 min preincubation): 0% |
| – | – | – | N=C1CCCC[C@@H](CCCC[C@H](N)C(=O)O)N1 [Example W, ([…]S,2R)-[…]-aminohexahydro-7-imino-1H-azepine-2-hexanoic Acid, Trihydrate Hydrochloride] | > 10 mg/kg | > 30 µM | inhibition at 4.2 µM ([5]; 21 min preincubation): 34%; inhibition at 4.2 µM ([5]; 60 min preincubation): 38%; inhibition at 173 µM ([6]; 21 min preincubation): 9%; inhibition at 173 µM ([6]; 60 min preincubation): 0%; inhibition at 13 µM ([7]; 13 μM, 21 min preincubation): 0% |
| 56 µM | 352 µM | 584 µM | CC(=N)NC/C(F)=C\CC[C@@](C)(N)C(=O)O [Example JJ, (2R,5E)-2-amino-2-methyl-6-fluoro-7-[(1-iminoethyl)amino]-5-heptenoic Acid, Dihydrochloride] | – | – | – |
| – | – | – | CC(=N)NC/C=C\CC[C@H](N)C(=O)O [Example T, (2S,5Z)-2-amino-7-[(1-iminoethyl)amino]-5-heptenoic Acid, Dihydrochloride] | – | 0.1 µM | – |
| 2.9 µM | 29 µM | 9.9 µM | CC(=N)NC/C=C/CC(C)(N)C(=O)O (stereo not shown) [Example CC, (E)-2-amino-2-methyl-6-[(1-iminoethyl)amino]-4-hexenoic Acid, Dihydrochloride] | < 3 mg/kg | 0.5 µM | – |
| 16 µM | 86 µM | 45 µM | CC(=N)NCC#CCC(C)(N)C(=O)O (stereo not shown) [Example FF, 2-amino-2-methyl-6-[(1-iminoethyl)amino]-4-hexynoic Acid, Dihydrochloride] | – | – | – |
| – | – | – | CC(=N)NC/C(F)=C/CC[C@H](N)C(=O)O [Example D, (2S,5Z)-2-amino-6-fluoro-7-[(1-iminoethyl)amino]-5-heptenoic Acid, Trihydrochloride, Dihydrate] | > 10 mg/kg | 2.5 µM | – |
| – | – | – | N=C1CCCC[C@H](CCCC[C@@H](N)C(=O)O)N1 [Example V, ([…]R,2S)-[…]-aminohexahydro-7-imino-1H-azepine-2-hexanoic Acid, Trihydrate Hydrochloride] | < 3 mg/kg | < 10 µM | – |
| – | – | – | N=C1CCCC[C@H](CCCC[C@H](N)C(=O)O)N1 [Example X, ([…]S,2S)-[…]-aminohexahydro-7-imino-1H-azepine-2-hexanoic Acid, Trihydrate Hydrochloride] | – | < 10 µM | – |
| – | – | – | CC(=NO)NC/C(F)=C\CC[C@H](N)C(=O)O [Example G, (2S,5E)-2-amino-6-fluoro-7-[(1-hydroximinoethyl)amino]-5-heptenoic Acid] | < 0.1 mg/kg | – | melting point: 198 to 200 °C |
| < 3 µM | > 5 µM | < 3 µM | N=C1CCCC[C@H](C/C=C\C[C@H](N)C(=O)O)N1 [Example AA, (2S,4Z)-2-amino-6-[(2R)-hexahydro-7-imino-1H-azepin-2-yl]-4-hexenoic Acid] | < 10 mg/kg | < 3 µM | inhibition at 2.2 µM ([5]; 21 min preincubation): 96%; inhibition at 2.2 µM ([5]; 60 min preincubation): 97%; inhibition at 2.2 µM ([6]; 2.2 μM, 60 min preincubation): 55%; inhibition at 5.7 µM ([6]; 5.7 μM, 21 min preincubation): 58%; inhibition at 0.9 µM ([7]; 21 min preincubation): 34%; inhibition at 0.9 µM ([7]; 60 min preincubation): 0% |
| – | – | – | CC(=N)NCC(F)=CCC[C@H](N)C(=O)O (mixture of isomers) [Example B, (2S,5E/Z)-2-amino-6-fluoro-7-[(1-iminoethyl)amino]-5-heptenoic Acid, Dihydrochloride] | – | 0.2 µM | – |
| 10 µM | 74 µM | 31 µM | CC(=N)NC/C=C/C[C@@](C)(N)C(=O)O [Example DD, (R, E)-2-amino-2-methyl-6-[(1-iminoethyl)amino]-4-hexenoic Acid, Dihydrochloride] | – | 1.8 µM | – |
| – | – | – | CC(=N)NC/C(F)=C\CC[C@H](N)C(=O)O [Example A, (2S,5E)-2-amino-6-fluoro-7-[(1-iminoethyl)amino]-5-heptenoic Acid, Dihydrochloride, Monohydrate] | < 0.1 mg/kg | 0.1 µM | ED50 ([4]; Dihydrochloride, Monohydrate): <0.1 mg/kg |
| 0.57 µM | 52 µM | 13 µM | CC(=N)NC/C(F)=C\CCC(C)(N)C(=O)O (racemic) [Example KK, (2R/S,5E)-2-amino-2-methyl-6-fluoro-7-[(1-iminoethyl)amino]-5-heptenoic Acid, Dihydrochloride] | 0.3 mg/kg | – | – |
| – | – | – | N=C(N)NN [aminoguanidine] | – | – | loss of retinal ganglion cells [9]: blocks loss of retinal ganglion cells |
| – | – | – | COC[C@](N)(CSCCNC(C)=N)C(=O)O [Example J, 2-[[[2-1(1-Iminoethyl)amino]ethyl]thiolmethyl]-O-methyl-D-serine, Dihydrochloride] | – | – | IC50 [8]: 8.2 µM |
| 1.4 µM | 18 µM | 5.8 µM | CC(=N)NC/C=C/C[C@](C)(N)C(=O)O [Example EE, (S, E)-2-amino-2-methyl-6-[(1-iminoethyl)amino]-4-hexenoic Acid, Dihydrochloride] | 0.2 mg/kg | 0.5 µM | – |
| – | – | – | CC(=N)NC/C(F)=C\CC[C@H](N)C(=O)Nc1nnn[nH]1 [Example H, (2S,5E)-2-amino-6-fluoro-7-[(1-iminoethyl)amino]-N-(1H-tetrazol-5-yl) 5-heptenamide, Dihydrochloride] | < 0.3 mg/kg | – | – |

| Compound | IC50 [1] | IC50 [2] | IC50 [3] | ED50 [4, 10] | IC50 ([8]; Homo sapiens) | also measured |
| --- | --- | --- | --- | --- | --- | --- |
| CC(=N)NC/C=C\CC[C@](C)(N)C(=O)O.Cl.Cl [Example LL, (2S,5Z)-2-amino-2-methyl-7-[(1-iminoethyl)amino]-5-heptenoic Acid, Dihydrochloride] | 0.7 µM | 31 µM | 12 µM | 0.3 mg/kg | 0.8 µM | – |
| CC(=N)NC/C=C\CC[C@@](C)(N)C(=O)O [Example MM, (2R,5Z)-2-amino-2-methyl-7-[(1-iminoethyl)amino]-5-heptenoic Acid, Dihydrochloride] | 121 µM | 1930 µM | 1480 µM | – | – | – |
| CC(=N)NC/C(F)=C\CC[C@](C)(N)C(=O)O.Cl.Cl [Example HH, (2S,5E)-2-amino-2-methyl-6-fluoro-7-[(1-iminoethyl)amino]-5-heptenoic Acid, Dihydrochloride] | 0.4 µM | 37 µM | 7.6 µM | 0.4 mg/kg | 0.4 µM | – |
